Consider three compounds from PMC4741798, “Imaging of carbonic anhydrase IX with an ^111In-labeled dual-motif inhibitor” (Oncotarget, 2015).

What is called IC50 is the concentration at which inhibition is half-maximal. A word on the Kd: it is a measure of binding affinity in units of concentration.

Test [1] concerns the target T1, CAIX (Homo sapiens, UniProt Q16790).
T1 construct: purchased R&D Systems
The experiment in a line: Competitive fluorescence polarization assay with FITC-labeled 8. It is filed as binding. The following applies: 100 nM CAIX, 80 nM 8, 30 min room temperature, triplicate; read-out: IC50 (inhibition of fluorescence polarization of FITC labeled 8). The source says:
We synthesized fluorescein isothiocyanate (FITC)-labeled 8 as a standard to measure CAIX binding affinities of the corresponding radiotracers. […] CAIX-selective binding was confirmed by fluorescence microscopic analyses of SK-RC-53 and BxPC3 cells labeled with 8 (Fig. 2). […] In order to test the relative binding of XYIMSR-01 and [^113/115In]XYIMSR-01 to CAIX we modified a competitive fluorescence polarization assay for use with 8. For the competitive binding assay, after optimization for background fluorescence, we chose concentrations of 80 nM and 100 nM for 8 and CAIX, respectively. […] Increasing concentrations of 1, XYIMSR-01 and [^113/115In]XYIMSR-01 were incubated with CAIX for 30 min at room temperature. After 8 was added, fluorescence polarization signal was recorded. […] We took advantage of fluorescence polarization using 8 to measure relative binding affinities for other isoforms of the carbonic anhydrases. We chose to test one cytosolic (CAII) and an additional membrane-localized isoform (CAXII).
Fluorescence polarization (FP) experiments were performed in 21 μL of the assay buffer (12.5 mM Tris-HCl, pH 7.5, 75 mM NaCl) in black flat bottom 384-well microplates (Corning, Inc., New York, NY). The FP reaction employed 100 nM of purified CAIX (R&D systems, Minneapolis, MN) and 80 nM FITC-labeled 8 [27] within the assay buffer. The FP values were measured as mP units using the Victor3 multi-label plate reader equipped with excitation (485 nm) and emission (535 nm) filters (Perkin Elmer, Waltham, MA). 100 nM CAIX was incubated with serially diluted (from 1 μM to 61 fM) concentrations of the three targeting molecules, 1, XYIMSR-01, and [^113/115In]XYIMSR-01 for 30 min at room temperature in 384-well plates. 80 nM 8 was added to each well and the reaction was incubated for 30 min at room temperature followed by FP measurement. Experiments were carried out in triplicate and the concentration resulting in 50% response (IC50) was calculated in GraphPad Prism 5 (GraphPad Software, La Jolla, CA) using the sigmoidal dose-response regression function.
Background: Fluorescence polarisation rises when a labelled molecule tumbles more slowly, as on binding a larger partner.

For test [2], the target named is CAIX. Further details: method as in PMID 25698334. The following applies: reported value; cited from earlier work.

Turning to `CC(CCC(=O)N[C@@H](CC(=O)N[C@@H](CC(=O)N[C@@H](CCCCn1cc(CCCC(=O)Nc2nnc(S(N)(=O)=O)s2)nn1)C(=O)NCCOCCOCCNC(=O)CN1CCN(CC(=O)O)CCN(CC(=O)O)CCN(CC(=O)O)CC1)C(=O)O)C(=O)O)(c1ccc(O)cc1)c1ccc(O)cc1` [XYIMSR-01, 2,2′,2′'-(10-((14S,18S,22S)-18,22-dicarboxy-27,27-bis(4-hydroxyphenyl)-2,13,16,20,24-pentaoxo-14-(4-(4-(4-oxo-4-((5-sulfamoyl-1,3,4-thiadiazol-2-yl)amino)butyl)-1H-1,2,3-triazol-1-yl)butyl)-6,9-dioxa-3,12,15,19,23-pentaazaoctacosyl)-1,4,7,10-tetraazacyclododecane-1,4,7-triyl)triacetic acid], in test [1], the IC50 came out at 67 nM.
On the same count and under the same terms, the figure for `CC(CCC(=O)N[C@@H](CC(=O)N[C@@H](CC(=O)N[C@@H](CCCCn1cc(CCCC(=O)Nc2nnc(S(N)(=O)=O)s2)nn1)C(=O)NCCOCCOCCNC(=O)CN1CCN(CC(=O)[O-])CCN(CC(=O)[O-])CCN(CC(=O)[O-])CC1)C(=O)O)C(=O)O)(c1ccc(O)cc1)c1ccc(O)cc1.[In+3]` [[^113/115In]XYIMSR-01, ^113/115Indium(III) 2,2′,2′'-(10-((14S,18S,22S)-18,22-dicarboxy-27,27-bis(4-hydroxyphenyl)-2,13,16,20,24-pentaoxo-14-(4-(4-(4-oxo-4-((5-sulfamoyl-1,3,4-thiadiazol-2-yl)amino)butyl)-1H-1,2,3-triazol-1-yl)butyl)-6,9-dioxa-3,12,15,19,23-pentaazaoctacosyl)-1,4,7,10-tetraazacyclododecane-1,4,7-triyl)triacetate] is 108 nM.
Turning to `CC(CCC(=O)N[C@@H](CC(=O)N[C@@H](CC(=O)N[C@@H](CCCCn1cc(CCCC(=O)Nc2nnc(S(N)(=O)=O)s2)nn1)C(=O)NCCOCCOCCN)C(=O)O)C(=O)O)(c1ccc(O)cc1)c1ccc(O)cc1` [Compound 1, N^4-((S)-1-((2-(2-(2-aminoethoxy)ethoxy)ethyl)amino)-1-oxo-6-(4-(4-oxo-4-((5-sulfamoyl-1,3,4-thiadiazol-2-yl)amino)butyl)-1H-1,2,3-triazol-1-yl)hexan-2-yl)-N^2-((S)-3-(4,4-bis(4-hydroxyphenyl)pentanamido)-3-carboxypropanoyl)-L-asparagine, reference compound], the IC50 in test [1] turned out to be 75.9 nM. Besides, in test [2], the Kd is 2.6 nM.
